Experimental data: paper PMC11879692, “PDE4 inhibitor rolipram represses hedgehog signaling via ubiquitin-mediated proteolysis of GLI transcription factors to regress breast cancer” (The Journal of Biological Chemistry, 2025)

Columns and labels:
[1] = test system: GLI1; assay: Immunohistochemistry of tumor tissue, GLI1; type: in vivo, BALB/c mice
Procedure: (§1) Solid tumors were developed in BALB/c mice (n = 3) except the control group (group I) by injecting 1 × 10^4 viable 4T1 (RRID: CVCL_0125) mice breast carcinoma cells (resuspended in 50 μl of PBS) into the inguinal fourth mammary fat pad, and the tumor was allowed to develop for 14 days ([37], [38]). Mice were randomly divided into three groups, viz., untreated tumor (group II), mice treated intraperitoneally with 1 mg//kg bodyweight of rolipram (group III), and mice receiving 5 mg/kg bodyweight of rolipram, intraperitoneally (group IV) ([39], [40]). After 14 days, the mice were sacrificed. Lung, kidney, liver, serum, and the tumors were collected for further experiments ([15]).
(§2) Mice mammary fat pad and mammary tumor tissues were processed as for histology, and 5 μm-thick sections were mounted on glass slides. The tissue sections were deparaffinized with xylene and hydrated with […] grades of alcohols (100% to 70%). Rehydrated sections were equilibrated in PBS. Antigen retrieval was performed by boiling the sections in a 0.1 M sodium citrate buffer (pH 6.0) for 10 min. […] The frequency (cell count) of positive and negative cells as well as the mean absorbance of the positive cells were plotted using MatPlotLib (RRID: SCR_008624), a Python (RRID: SCR_008394) 2D plotting library.

[2] = test system: PKA; assay: Immunohistochemistry of tumor tissue, PKA; type: in vivo, BALB/c mice
Procedure: as §1, §2

[3] = test system: MCF-7 cells; assay: Wound healing assay; type: cell-based, human
Procedure: (§3) Cells were seeded and allowed to attain a 2D monolayer of cells. […] The percentage of open area was evaluated using Tscratch software (CSElab, Koumoutsakos group at ETH Zurich, https://github.com/cselab/TScratch) (RRID: SCR_014282).

[4] = test system: MDA-MB-231 cells; assay: Wound healing assay; type: cell-based, human
Procedure: as §3

[5] = Serum biochemical parameters (kidney and liver function) of tumor-induced mice; type: in vivo, BALB/c mice; settings: mean ± SD (n = 3); for Kidney function Creatinine: Tumor 0.93 ± 0.15, Normal 0.32 ± 0.06; for Liver function Albumin: Tumor 3.56 ± 0.25, Normal 2.36 ± 0.15; for Liver function Protein: Tumor 4.93 ± 0.15, Normal 5.16 ± 0.20; for Kidney function Urea: Tumor 36.89 ± 3.43, Normal 17.30 ± 2.25
Procedure: as §1
The total protein in mouse serum was measured by biuret method, which relies on formation of reddish-violet color in alkaline copper solution ([46]). The absorptivity of the colored solution was measured at 570 nm and compared with known protein standards to determine the level of total protein in the serum. The serum urea level of mouse was determined using urea kit (Coral Clinical Systems; catalog no.: 1102240075), which relies on the reaction of phenolic chromogen and hypochlorite with the ammonia formed from urea ([47]). The absorbance of the test sample (AbsT) and standard sample (AbsS) was recorded at 570 nm, and the concentration of urea was determined by the formula urea (mg/dl) = (AbsT/AbsS) × 40, according to the manufacturer’s protocol. Level of serum creatinine was measured using creatinine kit (Coral Clinical Systems; catalog no.: 1101060035). Briefly, this kit utilizes the formation of a colored complex because of reaction between alkaline picric acid solution and creatinine ([48]). The initial absorbance of the test sample (Abs1T) and standard sample (Abs1S) was measured at 520 nm after 30 s of incubation, and the final absorbance of the test sample (Abs2T) and standard sample (Abs2S) was measured exactly after 60 s. The formula, creatinine (mg/dl) = (Abs2T – Abs1T)/(Abs2S – Abs1S) × 2, was used to determine the concentration of creatinine. Activities of AST and ALT were evaluated from the serum of mice using AST assay kit (catalog no.: MAK055) and ALT assay kit (catalog no.: MAK052) from Sigma–Aldrich, following the manufacturer’s protocol. The estimation of AST activity is based on the production of glutamate by the activity of AST present in the serum samples. The absorbance of the colored product was measured at 450 nm and compared with known standard samples to determine the activity ([49]). Similarly, the ALT assay kit is based on the production of pyruvate in the presence of ALT in serum. The activity of the ALT in mouse serum was determined by measuring the absorbance of the colored product at 570 nm and comparing with the known standard samples ([50]). All the spectrophotometric analyses were carried out in Bio-Rad iMark Microplate Reader (RRID: SCR_023799).

## COc1ccc(C2CNC(=O)C2)cc1OC1CCCC1 (stereo not drawn) [rolipram, Rolipram]
[1]; 1 mg/kg bodyweight
  reduction of GLI1 expression in tumor tissue: twofold
[1]; 5 mg/kg bodyweight
  reduction of GLI1 expression in tumor tissue: sixfold
[2]; 1 mg/kg bodyweight
  increase of PKA-positive cells compared with tumor tissues: ~1.5 fold
[2]; 5 mg/kg bodyweight
  increase of PKA-positive cells compared with tumor tissues: ~1.5 fold
[3]; MCF-7, IC50 dose, up to 48 h, untreated 45% to 34% (24 h) and 22% (48 h)
  percentage of open area (wound): failed to significantly reduce the percentage of open area
[3]; MCF-7, in the presence of TAK-243 (0.1 μM)
  cell migration capability: failed to retard the cell migration capability
[4]; MDA-MB-231, IC50 dose, 24 and 48 h, untreated 33% to 20% and 12%
  percentage of open area (wound): no significant change
[4]; MDA-MB-231, in the presence of TAK-243 (0.1 μM)
  cell migration capability: failed to retard the cell migration capability
[5]; Tumor + 1 mg/kg
  Kidney function Creatinine: 0.45 ± 0.08 mg/dL
  Liver function Albumin: 2.73 ± 0.15 g/dL
  Liver function Protein: 5.30 ± 0.10 g/dL
  Kidney function Urea: 20.39 ± 3.06 mg/dL
[5]; Tumor + 1 mg/kg, Tumor 135.85 ± 11.7, Normal 85.23 ± 7.97
  Liver function AST: 119.69 ± 10.1 U/L
[5]; Tumor + 5 mg/kg
  Kidney function Creatinine: 0.50 ± 0.05 mg/dL
  Liver function Albumin: 2.66 ± 0.05 g/dL
  Liver function Protein: 4.90 ± 0.20 g/dL
  Kidney function Urea: 22.08 ± 2.34 mg/dL
[5]; Tumor + 5 mg/kg, Tumor 55.77 ± 2.38, Normal 43.31 ± 0.88
  Liver function ALT: 55.69 ± 4.97 U/L
